# Measured values as given in patent US12252472B1, “Barbituric acid derivatives, their preparation and use thereof as leukocyte transmigration inhibitors and for treating inflammatory diseases, autoimmune diseases and cancer” (BAR-ILAN UNIVERSITY, priority 2017, dated 2025).
# Entries after “also recorded” stand apart in the source; their conditions may differ.
# Columns and labels:
# [1] = tested on: primary human monocytes on TNF-alpha-activated HUVECs; experiment: Shear flow assay: monocyte adhesion and transmigration on TNFα-activated HUVECs; assay type: cell-based
# Excerpt: A flow assay that allows detailed analysis of individual leukocyte interactions with endothelial cells (ECs), described in Bradfield et al. (Bradfield et al., 2016, PloS One, July 21; 11(7); Bradfield et al., 2007, Blood. October 1; 110(7):2545-55) was used for evaluation of the biological effects of the compounds according to the invention. This method allows the determination of the possible effects of the compounds on three major phases in leukocyte migration: the capture of free non-bound leukocytes by endothelium, migration of leukocytes on the endothelium surface, and transendothelial migration (transmigration) of human leukocytes through the HUVECs layer. Post transmigrational events can also be monitored by tracking individual leukocytes. […] Human umbilical vein endothelial cells (HUVECs) were cultivated in the plastic channel of the flow chamber, and human leukocyte were flowed over them using a calibrated pump, allowing monocyte capture, adhesion and migration to be monitored.
# Human umbilical vein endothelial cells (HUVEC) were isolated by collagenase treatment of umbilical veins as previously described (Wall, R. T., et al., Factors influencing endothelial cell proliferation in vitro. J Cell Physiol, 1978. 96(2): p. 203-13) and maintained in M199 containing 20% fetal calf serum (FCS), 15 μg/mL endothelial cell growth supplement (Upstate Biotechnology, Lake Placid, NY), 100 μg/mL heparin, 50 μM hydrocortisone, and 10 μg/mL vitamin C. Cells were cultured up to a maximum of passage 5.
# Peripheral blood mononuclear cells (PBMCs) were first isolated from blood of healthy donors followed by monocyte purification using a monocyte isolation kit (Miltenyi Biotec, Bergisch Gladbach, Germany). Purity and activity of monocytes were controlled by flow cytometry by labelling with anti-CD14 and anti-CD62L. Only populations of 90% or more double positive cells were used.
# Flow assays were conducted as described in a previous study (Bradfield, P. F., et al., JAM-C regulates unidirectional monocyte transendothelial migration in inflammation. Blood, 2007. 110(7): p. 2545-55). HUVECs were cultured at 1×10^5 cells/slide on Ibidi 6-chamber slides (80606; Ibidi) before treatment with TNFα (500 U/mL) for 6-10 hours. An individual chamber outlet was then attached to a calibrated pump (74 900; Cole Partner, Vernon Hills, IL) and flow was generated by perfusing wash buffer (M199 with 0.15% BSA) or a monocyte suspension (2.5×10^6 cells/mL) over the HUVEC monolayer. The flow rate was representative of shear rates in small venules (0.05 Pa). Observations made using phase-contrast microscopy (Model: Axiovert 100; Objective: 20×/0.3 NA air; Carl Zeiss) were recorded using a high-resolution camera (D70; Nikon, Zurich, Switzerland). Individual images were recorded every 30 seconds with Nikon capture software (v4.2) and compiled into movie sequences using Adobe Photoshop (CS6) and Image J (v1.5d), allowing analysis of individual monocytes over large areas. The tested compounds, e.g. compounds of the general Formula (I), were maintained at the specified concentration in all wash buffers throughout the course of the experiment. The compounds were preincubated separately on both HUVECs and monocytes 15 minutes prior to flow co-culture. HUVEC monolayers were washed for 10 minutes prior to a compound wash-in step to allow for this preincubation period. The monocyte suspension was then perfused over HUVECs for 4 minutes followed by 20 to 60 minutes with wash buffer. Time-lapse recording was started upon monocyte first-contact with the monolayer. Monocyte adhesion data are presented as the total number of monocytes per unit field. Transmigration events are presented as a percentage of total monocytes captured from flow per unit field. All experiments were carried out using quadruplicate fields and are presented as a mean value (±SEM).
# A timeline is shown to represent the positioning and timing of an individual monocyte during movie analysis (marked ‘Timeline’). […]
# C57BL/6J mice [2] = experiment: MOG35-55/CFA-induced experimental autoimmune encephalomyelitis (EAE); assay type: in vivo, mouse; conditions: 15 mg/kg SC q3w
# Procedure: Female 7-8 weeks old C57BL/6J mice were immunized with an emulsion of MOG35-55 in CFA according to standard protocol, followed by administration of pertussis toxin (PTX) in PBS. After the onset of EAE (9 days), mice were assigned by rolling enrollment to the groups one at a time as they show the first signs of EAE (paralysis score 0.5-1). Treatment group was administered with Formula 2 at 15 mg/kg dose at q3w regiment by SC injections, mock treated (vehicle) control group was administered with similar volume as a treated group. Body weight of animals was determined prior to the experiment and the administered volume of Formula 2 formulation was adjusted according to the body weight. During the experiment, mice body weight and paralysis clinical score was monitored daily.
# Mice from all groups were euthanized with isoflurane 24 hours post last dose administration. Two-way ANOVA statistical analysis was performed.
# C57BL/6J mice [3] = experiment: High-fat-diet induced non-alcoholic fatty liver disease (NAFLD) model; assay type: in vivo, mouse; conditions: 15 mg/kg SC or IP q3w; 30 mg/kg PO qd; 65 days
# Procedure: Male C57BL/6J (Envigo, Israel) mice (3-4 weeks of age) were fed ad libitum a high fat, no high carbohydrate diet (modified Western diet, WD) with 42% kcal from fat and containing 0.1% cholesterol (Harlan TD.88137) with normal water (without high fructose-glucose solution) for […] prior to treatment initiation. Control mice were fed a standard chow diet (CD, Harlan TD.7012) with normal water (NW). Compound of Formula 2 was administrated on the 85th day of the high fat diet (15 mg/kg, for S.C and IP at q3w regiment; 30 mg/kg for PO at qd regiment) for 65 days. Mock treated (vehicle) control group was administrated with IP injections at the same volume and regiment as a corresponding treated group for 65 days. Body weight of animals was determined prior to the treatment initiation and the administered volume of the compound of Formula 2 was adjusted according to the body weight. All animals were euthanized 24 hours post last dose administration. At necropsy liver and mesenteric fat wet weights were determined. Liver and mesenteric fat were fixed with 4% buffered formalin, embedded in paraffin, sections and H&E stained. Steatohepatitis was defined by the presence of steatosis, inflammation and hepatocellular ballooning, as per the FLIP algorithm. The severity of steatosis, lobular inflammation and hepatocellular ballooning were scored using the NASH-Clinical Research Network (CRN) criteria. NAFLD activity score (NAS) was calculated by adding the scores of: steatosis (maximal score 3) is defined by more than 66% of hepatocytes containing fat droplets; lobular inflammation (maximal score 3) is defined by >4 foci/200 field; hepatocyte ballooning (maximal score 2) is defined by many cells/prominent ballooning. Ordinary one-way ANOVA statistical analysis was performed.
compound,measurement,setting,value
"COC(=O)c1ccc(COc2c(C=C3C(=O)NC(=O)NC3=O)cccc2C(C)(C)C)cc1 [Formula 2, methyl 4-((2-(tert-butyl)-6-((2,4,6-trioxotetrahydropyrimidin-5(2H)-ylidene)methyl)phenoxy)methyl) benzoate]",monocyte transmigration,[1]; 30 μM,completely blocked
same,Monocyte adhesion,"[1]; 30 μM, flow 0.05 Pa for 30 minutes",unaffected
same,Level of Transmigration Blockage (%),"[1]; 30 μM, monocytes on TNF-activated HUVECs under flow 0.05 Pa",100%
same,IC50,"[1]; Homo sapiens, HUVEC, flow 0.05 Pa, n=3",2400 nM
same,Emax,"[1]; Homo sapiens, HUVEC, monocyte transmigration inhibition, read-out: maximal efficacy",48%
same,concentration below which not active on monocyte transmigration,"[1]; dose response, 100 μM to 3 nM",below 300 nM
same,monocyte transmigration,"[1]; dose response, 3 μM",partial blocking
same,monocyte transmigration,"[1]; dose response, 30-100 μM",full blocking
same,time of the maximal effect,"[1]; monocyte transmigration, read at 10, 15, 20 and 25 minutes",20 min
same,body weight,C57BL/6J mice [2]; by day 20,body weight recovery to that recorded on the onset of the disease
same,"paralysis score, decrease",C57BL/6J mice [2]; by day 20,from 2 to 1.5
same,body weight difference between treated and non-treated group,"C57BL/6J mice [2]; end of the experiment, average",approximately 4 g
same,paralysis score,C57BL/6J mice [2]; starting from day 10,stable
same,NAFLD activity score,C57BL/6J mice [3],significant reduction; also recorded: therapeutic effect
same,mesenteric fat weight,C57BL/6J mice [3],significant reduction; also recorded: decreased
same,mice body weight,C57BL/6J mice [3],significant reduction
same,wet liver weight,C57BL/6J mice [3],significant reduction; also recorded: decreased
